Assay results: paper PMC6193938, “Characterization of a novel AICARFT inhibitor which potently elevates ZMP and has anti-tumor activity in murine models” (Scientific Reports, 2018)
Like-named read-outs stand apart in the source and are kept apart here.

System: panel of human cell lines
Experiment: In vitro proliferation assay, Cell Titer Glo, two doubling times, 298 cell lines
Assay type: cell-based
Conditions: Homo sapiens, read-out: ABS_IC50_VALUE
Description: Cell Titer Glo measures ATP, thus the IC50s represent both the effect on purine production and cell proliferation, which are related. […] Folates are actively taken up in cells by reduced folate carrier (SLC19A1), proton-coupled folate transporter (SLC46A1), and the FOLR1 folate receptor[17]. Once inside the cell, folates are trapped by polyglutamation catalyzed by folylpolyglutamate synthetase (FPGS). […] Gene expression data for ATIC, GART, APRT, HPRT, FOLR1, SLC19A1, SLC46A1 & FPGS are shown in Fig. 2, since these genes were anticipated to predict sensitivity. […] The MDA-MB-231 cell line is reduced folate carrier (SLC19A1) negative due to epigenetic silencing.
Cells were cultured using recommended culture conditions unless noted otherwise (Supplemental Table 3). Cells were plated, dosed with compound and incubated at 37 °C for approximately 2 doubling times as determined for each cell line. Cell Titer Glo (Promega) assay was used to measure proliferation according to manufacturer’s recommendations by measuring luminescence with Flexstation3 (Molecular Devices) with 500 ms integration time. […] The % response was fit to a four-parameter logistic equation using ACTIVITYBASE 4.0 to determine the absolute IC50 values.
Cell Lines: Cell lines of adrenal gland, autonomic ganglia, biliary tract, blood ALL, blood AML, blood CML, blood hodgkin lymphoma, blood lymphoma, blood multiple myeloma, blood NHL, blood RAEB, bone, breast ER+, breast fibroblast, breast fibroblast mixed, breast HER2, breast normal, breast triple negative, cervix, CNS, endometrium, eye, fibroblast normal, kidney ns, kidney renal, large intestine, liver, liver normal, lung adenocarcinoma, lung ns, lung NSCLC, lung NSCLC mixed, lung SCLC, lung squamous, melanoma, melanoma normal, esophagus adenocarcinoma, esophagus ns, esophagus squamous, ovary, pancreas adenocarcinoma, pancreas ductal carcinoma, pancreas ns, pleura mesothelioma, prostate adenocarcinoma, prostate small cell, salivary gland, small intestine, soft tissue, stomach, testis, thyroid, thyroid squamous, umbilical vein endothelial cell normal, upper aerodigestive tract squamous, urinary tract ns, urinary tract transitional cell carcinoma, and vulva squamous origin were obtained from ATCC, CASTCC, CLS, DSMZ, ECACC, HSRRB, ICLC, JCRB, NCI, Riken and SNU cell banks. The murine A9 cell line was acquired from the ATCC (CCL-1.4).

O=c1[nH]ccc2cc(F)c(NS(=O)(=O)c3ccc(N4CC[C@@H](O)C4)s3)cc12 [LSN3213128, N-(6-Fluoro-1-oxo-1,2-dihydroisoquinolin-7-yl)-5-[(3R)-3-hydroxypyrrolidin-1-yl]thiophene-2-sulfonamide]
IC50 (NCI-H661, NCI-H661, lung): 16.2 µM | IC50 (NCI-H716, NCI-H716, large intestine): 1.34 µM | IC50 (NCI-H929, NCI-H929, haematopoietic and lymphoid tissue): > 20 µM | IC50 (NCI-H1048, NCI-H1048, lung): > 20 µM | IC50 (NCI-H1092, NCI-H1092, lung): > 20 µM | IC50 (NCI-H1105, lung): > 20 µM | IC50 (NCI-H1155, NCI-H1155, lung): 13.6 µM | IC50 (NCI-H1299, NCI-H1299, lung): 1.32 µM | IC50 (NCI-H1341, lung): 2.83 µM | IC50 (NCI-H1355, NCI-H1355, lung): > 20 µM | IC50 (NCI-H1395, NCI-H1395, lung): 12.6 µM | IC50 (NCI-H1435, NCI-H1435, lung): > 20 µM | IC50 (NCI-H1437, NCI-H1437, lung): 1.37 µM | IC50 (NCI-H1573, NCI-H1573, lung): > 20 µM | IC50 (NCI-H1581, NCI-H1581, lung): 16.5 µM | IC50 (NCI-H1618, lung): > 20 µM | IC50 (NCI-H1623, NCI-H1623, lung): > 20 µM | IC50 (NCI-H1648, NCI-H1648, lung): > 20 µM | IC50 (NCI-H1650, NCI-H1650, lung): 8.18 µM | IC50 (NCI-H1651, NCI-H1651, lung): > 20 µM | IC50 (NCI-H1666, NCI-H1666, lung): > 20 µM | IC50 (NCI-H1694, NCI-H1694, lung): > 20 µM | IC50 (NCI-H1703, NCI-H1703, lung): > 20 µM | IC50 (NCI-H1734, NCI-H1734, lung): > 20 µM | IC50 (NCI-H1781, NCI-H1781, lung): > 20 µM | IC50 (NCI-H1792, NCI-H1792, lung): 8.57 µM | IC50 (NCI-H1793, NCI-H1793, lung): > 20 µM | IC50 (NCI-H1836, NCI-H1836, lung): 2.47 µM | IC50 (NCI-H1838, NCI-H1838, lung): > 20 µM | IC50 (NCI-H1876, lung): > 20 µM | IC50 (NCI-H1930, NCI-H1930, lung): 17.8 µM | IC50 (NCI-H1944, NCI-H1944, lung): > 20 µM | IC50 (NCI-H1975, NCI-H1975, lung): 2.15 µM | IC50 (NCI-H2009, NCI-H2009, lung): > 20 µM | IC50 (NCI-H2023, NCI-H2023, lung): > 20 µM | IC50 (NCI-H2029, NCI-H2029, lung): > 20 µM | IC50 (NCI-H2030, NCI-H2030, lung): 8.19 µM | IC50 (NCI-H2052, NCI-H2052, pleura): > 20 µM | IC50 (NCI-H2066, NCI-H2066, lung): > 20 µM | IC50 (NCI-H2081, NCI-H2081, lung): > 20 µM | IC50 (NCI-H2085, lung): > 20 µM | IC50 (NCI-H2087, NCI-H2087, lung): > 20 µM | IC50 (NCI-H2122, NCI-H2122, lung): 1.22 µM | IC50 (NCI-H2126, NCI-H2126, lung): > 20 µM | IC50 (NCI-H2170, NCI-H2170, lung): 13.7 µM | IC50 (NCI-H2171, NCI-H2171, lung): > 20 µM | IC50 (NCI-H2227, lung): > 20 µM | IC50 (NCI-H2228, NCI-H2228, lung): 7.07 µM | IC50 (NCI-H2286, NCI-H2286, lung): 17.6 µM | IC50 (NCI-H2347, NCI-H2347, lung): > 20 µM | IC50 (NCI-H2405, NCI-H2405, lung): > 20 µM | IC50 (NCI-H2452, NCI-H2452, pleura): > 20 µM | IC50 (NCI-N87, NCI-N87, stomach): 2.39 µM | IC50 (NCI-SNU-5, stomach): > 20 µM | IC50 (NCI-SNU-16, stomach): 1.18 µM | IC50 (NH-6, autonomic ganglia): > 20 µM | IC50 (NMC-G1, central nervous system): > 20 µM | IC50 (NOMO-1, NOMO-1, haematopoietic and lymphoid tissue): 2.03 µM | IC50 (NUGC-3, NUGC-3, stomach): 11.9 µM | IC50 (NUGC-4, NUGC-4, stomach): 8.38 µM | IC50 (OCUM1, OCUM-1, stomach): 16.5 µM | IC50 (OE19, OE19, oesophagus): 6.52 µM | IC50 (OE33, OE33, oesophagus): 12.7 µM | IC50 (ONS-76, ONS-76, central nervous system): 3.6 µM | IC50 (OVCAR-3, OVCAR-3, ovary): 12.7 µM | IC50 (OVMANA, ovary): 2.59 µM | IC50 (P31-FUJ, haematopoietic and lymphoid tissue): 0.71 µM | IC50 (PC-3, prostate): > 20 µM | IC50 (PF-382, PF-382, haematopoietic and lymphoid tissue): 2.13 µM | IC50 (Panc 04.03, Panc 04.03, pancreas): 5.44 µM | IC50 (Pfeiffer, haematopoietic and lymphoid tissue): 2.55 µM | IC50 (QGP-1, QGP-1, pancreas): 10.7 µM | IC50 (RD, soft tissue): 9.13 µM | IC50 (RD-ES, bone): 8.54 µM | IC50 (REH, haematopoietic and lymphoid tissue): 6.9 µM | IC50 (RERF-LC-MS, lung): 1.92 µM | IC50 (RKN, ovary): > 20 µM | IC50 (RKO, large intestine): 8.04 µM | IC50 (RL95-2, RL95-2, endometrium): > 20 µM | IC50 (RL, haematopoietic and lymphoid tissue): 0.76 µM | IC50 (RMG-I, ovary): > 20 µM | IC50 (RPMI-7951, RPMI-7951, skin): > 20 µM | IC50 (RPMI-8226, RPMI-8226, haematopoietic and lymphoid tissue): 12.6 µM | IC50 (RT4, urinary tract): > 20 µM | IC50 (RT112/84, RT112/84, urinary tract): 1.92 µM | IC50 (Raji, haematopoietic and lymphoid tissue): 7.5 µM | IC50 (Rec1, REC-1, haematopoietic and lymphoid tissue): > 20 µM | IC50 (SCC-4, SCC-4, upper aerodigestive tract): > 20 µM | IC50 (SCC-9, SCC-9, upper aerodigestive tract): > 20 µM | IC50 (SCC-15, SCC-15, upper aerodigestive tract): > 20 µM | IC50 (SCC-25, SCC-25, upper aerodigestive tract): > 20 µM | IC50 (SH-10-TC, stomach): > 20 µM | IC50 (SJRH30, SJRH30, soft tissue): 5.13 µM | IC50 (SJSA-1, SJSA-1, bone): > 20 µM | IC50 (SK-BR-3, SK-BR-3, breast): 6.52 µM | IC50 (SK-CO-1, SK-CO-1, large intestine): 12.8 µM | IC50 (SK-ES1, SK-ES-1, bone): > 20 µM | IC50 (SK-HEP1, SK-HEP-1, liver): 11.1 µM | IC50 (SK-LMS-1, SK-LMS-1, soft tissue): 0.91 µM | IC50 (SK-LU-1, SK-LU-1 (lung, adenocarcinoma)): > 20 µM | IC50 (SK-MEL3, SK-MEL-3 (skin, malignant melanoma)): > 20 µM | IC50 (SK-MEL-2, SK-MEL-2 (skin, malignant melanoma)): > 20 µM | IC50 (SK-MEL-5, SK-MEL-5 (skin, melanoma)): > 20 µM | IC50 (SK-MEL-24, SK-MEL-24 (skin, malignant melanoma)): > 20 µM | IC50 (SK-MEL-28, SK-MEL-28 (skin, malignant melanoma)): 0.47 µM | IC50 (SK-MEL-31 (skin, malignant melanoma)): > 20 µM | IC50 (SK-MES-1, SK-MES-1 (lung; squamous cell carcinoma)): 2.25 µM | IC50 (SK-N-AS, SK-N-AS (brain, neuroblastoma)): > 20 µM | IC50 (SK-OV-3, SK-OV-3 (ovary, adenocarcinoma)): > 20 µM | IC50 (SNB-19, SNB19 (central nervous system, Glioblastoma)): 0.79 µM | IC50 (SNG-M (endometrium, endometrial adenocarcinoma)): > 20 µM | IC50 (SNU-182, SNU-182 (liver, hepatocellular carcinoma)): 20.7 µM | IC50 (SNU-216, SNU-216 (stomach, Human gastric carcinoma)): > 20 µM | IC50 (SNU-387, SNU-387 (liver, pleomorphic hepatocellular carcinoma)): 27 µM | IC50 (SNU-398, SNU-398 (liver, hepatocellular carcinoma)): 16.4 µM | IC50 (SNU-423, SNU-423 (liver, pleomorphic hepatocellular carcinoma)): 21.7 µM | IC50 (SNU-449, SNU-449 (liver, hepatocellular carcinoma)): 11.3 µM | IC50 (SNU-475, SNU-475 (liver, hepatocellular carcinoma)): 24.8 µM | IC50 (SNU-C1, SNU-C1 (large intestine, colon, adenocarcinoma)): 4.55 µM | IC50 (SNU-C2A (large intestine, cecum, colorectal carcinoma)): > 20 µM | IC50 (SW48, SW48 (large intestine, colon, colorectal adenocarcinoma)): 6.86 µM | IC50 (SW480, SW480 (large intestine, colon, colorectal adenocarcinoma)): 1.97 µM | IC50 (SW837, SW837 (large intestine, rectum, adenocarcinoma)): 1.28 µM | IC50 (SW1271, SW 1271 (lung; small cell lung carcinoma)): 10.4 µM | IC50 (SW1353, SW 1353 (bone, chondrosarcoma)): > 20 µM | IC50 (SW1417, SW1417 (large intestine, colon, colorectal adenocarcinoma)): > 20 µM | IC50 (SW1463, SW1463 (large intestine, rectum, colorectal adenocarcinoma)): 15.1 µM | IC50 (SW-620, SW620 (large intestine, colon, adenocarcinoma)): > 20 µM | IC50 (T84 (large intestine, colon, colorectal carcinoma)): > 20 µM | IC50 (T98G, T98G (central nervous system, glioblastoma multiforme)): 3.62 µM | IC50 (TCC-SUP, TCCSUP (urinary bladder, transitional cell carcinoma)): 4.2 µM | IC50 (TE-1 (oesophagus, esophageal squamous cell carcinoma)): 1.08 µM | IC50 (TE-5 (oesophagus, esophageal squamous cell carcinoma)): 4.79 µM | IC50 (TE-9 (oesophagus, esophageal squamous cell carcinoma)): 1.17 µM | IC50 (TE-11, TE-11 (oesophagus, esophageal squamous cell carcinoma)): 2.02 µM | IC50 (TE-15, TE-15 (oesophagus, esophageal squamous cell carcinoma)): 0.73 µM | IC50 (THP-1, THP-1 (haematopoietic and lymphoid tissue, leukemia, acute monocytic)): 5.52 µM | IC50 (TOV21G, TOV-21G (ovary, clear cell carcinoma)): > 20 µM | IC50 (TT (thyroid, carcinoma)): 10.6 µM | IC50 (Toledo, Toledo (haematopoietic and lymphoid tissue, diffuse large cell lymphoma)): > 20 µM | IC50 (U-251, U251 (central nervous system, human glioma)): 3.02 µM | IC50 (U-266, U-266 (haematopoietic and lymphoid tissue, myeloma; plasmacytoma)): 13.4 µM | IC50 (UACC-812, UACC-812 (breast, ductal carcinoma)): > 20 µM | IC50 (UMUC3, UM-UC-3 (urinary bladder, transitional cell carcinoma)): 1.93 µM | IC50 (VCaP, VCaP (prostate, prostate cancer)): 7.74 µM | IC50 (VMRC-RCZ (kidney, renal cancer)): 7.61 µM | IC50 (WM 266-4, WM-266-4 (skin, melanoma)): > 20 µM | IC50 (WM-115, WM-115 (skin, malignant melanoma)): > 20 µM | IC50 (ZR-75-30, ZR-75-30 (breast, ductal carcinoma)): > 20 µM
